# Laboratory results published in ChEMBL document CHEMBL1201861, “Genomics of Drug Sensitity in Cancer screening data, Wellcome Trust Sanger Institute”.
# Key:
# Assay in all cases: cells
# COLO-800 = type: functional, cell-based, Homo sapiens; conditions: Homo sapiens, COLO-800;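 also: growth inhibition of COLO-800 cells, read out with a cell viability assay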
# Description: SANGER: Inhibition of human COLO-800 cell growth in a cell viability assay.
# CTV-1 = type: functional, cell-based, Homo sapiens; conditions: Homo sapiens, CTV-1;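 also: growth inhibition of the cell line, read out with a cell viability assay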
# Description: SANGER: Inhibition of human CTV-1 cell growth in a cell viability assay.
# CW-2 = type: functional, cell-based, Homo sapiens; conditions: Homo sapiens, CW-2;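 also: growth inhibition of CW-2 cells, read out by a cell viability assay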
# Description: SANGER: Inhibition of human CW-2 cell growth in a cell viability assay.
# D283 Med = type: functional, cell-based, Homo sapiens; conditions: Homo sapiens, D283 Med
# Description: SANGER: Inhibition of human D-283MED cell growth in a cell viability assay.
# EKVX = type: functional, cell-based, Homo sapiens; conditions: Homo sapiens, EKVX;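 also: growth inhibition of human EKVX cells, read out with a cell viability assay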
# Description: SANGER: Inhibition of human EKVX cell growth in a cell viability assay.
# ES7 = type: functional, cell-based, Homo sapiens; conditions: Homo sapiens, ES7;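 also: growth inhibition of cultured human ES7 cells, read out as cell viability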
# Description: SANGER: Inhibition of human ES7 cell growth in a cell viability assay.
# ETK-1 = type: functional, cell-based, Homo sapiens; conditions: Homo sapiens, ETK-1;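 also: growth inhibition of human ETK-1 cells, read out with a cell viability assay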
# Description: SANGER: Inhibition of human ETK-1 cell growth in a cell viability assay.
# EW-18 = type: functional, cell-based, Homo sapiens; conditions: Homo sapiens, EW-18; read-out: IC50;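 also: growth inhibition of EW-18 cells, read out by a cell viability assay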
# Description: SANGER: Inhibition of human EW-18 cell growth in a cell viability assay.
# EOL1 = type: functional, cell-based, Homo sapiens; conditions: Homo sapiens, EOL1;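 also: growth inhibition of EoL-1 cells, read out by a cell viability assay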
# Description: SANGER: Inhibition of human EoL-1-cell cell growth in a cell viability assay.
# GCIY = type: functional, cell-based, Homo sapiens; conditions: Homo sapiens, GCIY;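 also: growth inhibition of the human GCIY cell line, read out by a cell viability assay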
# Description: SANGER: Inhibition of human GCIY cell growth in a cell viability assay.
# HAL-01 = type: functional, cell-based, Homo sapiens; conditions: Homo sapiens, HAL-01;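 also: growth inhibition of human HAL-01 cells, read out with a cell viability assay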
# Description: SANGER: Inhibition of human HAL-01 cell growth in a cell viability assay.
# HCC1187 = type: functional, cell-based, Homo sapiens; conditions: Homo sapiens, HCC1187;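 also: growth inhibition of HCC1187 cells, read out with a cell viability assay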
# Description: SANGER: Inhibition of human HCC1187 cell growth in a cell viability assay.
# HCC2218 = type: functional, cell-based, Homo sapiens; conditions: Homo sapiens, HCC2218;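 also: cell viability assay read-out, with IC50 given as the concentration that inhibits growth of the cell line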
# Description: SANGER: Inhibition of human HCC2218 cell growth in a cell viability assay.
# HEL = type: functional, cell-based, Homo sapiens; conditions: Homo sapiens, HEL;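 also: growth inhibition of HEL cells, read out with a cell viability assay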
# Description: SANGER: Inhibition of human HEL cell growth in a cell viability assay.
# K562 = type: functional, cell-based, Homo sapiens; conditions: Homo sapiens, K562
# Description: SANGER: Inhibition of human K-562 cell growth in a cell viability assay.
# KINGS-1 = type: functional, cell-based, Homo sapiens; conditions: Homo sapiens, KINGS-1;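 also: cell viability assay measuring suppression of KINGS-1 cell growth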
# Description: SANGER: Inhibition of human KINGS-1 cell growth in a cell viability assay.
# KNS-42 = type: functional, cell-based; conditions: Homo sapiens;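 also: growth inhibition of KNS-42 cells, read out with a cell viability assay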
# Description: SANGER: Inhibition of human KNS-42 cell growth in a cell viability assay.
# LB1047-RCC = type: functional, cell-based, Homo sapiens; conditions: Homo sapiens, LB1047-RCC;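 also: inhibition of cell growth, determined with a cell viability assay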
# Description: SANGER: Inhibition of human LB1047-RCC cell growth in a cell viability assay.
# LNCaP-Clone-FGC = type: functional, cell-based, Homo sapiens; conditions: Homo sapiens, LNCaP-Clone-FGC
# Description: SANGER: Inhibition of human LNCaP-Clone-FGC cell growth in a cell viability assay.
# LU-139 = type: functional, cell-based, Homo sapiens; conditions: Homo sapiens, LU-139
# Description: SANGER: Inhibition of human LU-139 cell growth in a cell viability assay.
# MFM-223 = type: functional, cell-based, Homo sapiens; conditions: Homo sapiens, MFM-223
# Description: SANGER: Inhibition of human MFM-223 cell growth in a cell viability assay.
# MSTO-211H = type: functional, cell-based, Homo sapiens; conditions: Homo sapiens, MSTO-211H
# Description: SANGER: Inhibition of human MSTO-211H cell growth in a cell viability assay.
# NB10 = type: functional, cell-based, Homo sapiens; conditions: Homo sapiens, NB10;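 also: growth inhibition of NB10 cells, read out by a cell viability assay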
# Description: SANGER: Inhibition of human NB10 cell growth in a cell viability assay.
# NCI-H1355 = type: functional, cell-based, Homo sapiens; conditions: Homo sapiens, NCI-H1355;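 also: growth inhibition of human NCI-H1355 cells, read out by a cell viability assay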
# Description: SANGER: Inhibition of human NCI-H1355 cell growth in a cell viability assay.
# NCI-H69 = type: functional, cell-based, Homo sapiens; conditions: Homo sapiens, NCI-H69;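 also: growth inhibition of the cell line, read out with a cell viability assay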
# Description: SANGER: Inhibition of human NCI-H69 cell growth in a cell viability assay.
# NEC8 = type: functional, cell-based, Homo sapiens; conditions: Homo sapiens, NEC8;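 also: growth inhibition of human NEC8 cells, read out by a cell viability assay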
# Description: SANGER: Inhibition of human NEC8 cell growth in a cell viability assay.
# NOMO-1 = type: functional, cell-based, Homo sapiens; conditions: Homo sapiens, NOMO-1;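 also: growth inhibition of human NOMO-1 cells measured by a cell viability assay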
# Description: SANGER: Inhibition of human NOMO-1 cell growth in a cell viability assay.
# P30-OHK = type: functional, cell-based, Homo sapiens; conditions: Homo sapiens, P30-OHK;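 also: growth inhibition of the P30-OHK cell line, read out with a cell viability assay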
# Description: SANGER: Inhibition of human P30-OHK cell growth in a cell viability assay.
# QIMR-WIL = type: functional, cell-based, Homo sapiens; conditions: Homo sapiens, QIMR-WIL;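 also: growth inhibition of QIMR-WIL cells, read out with a cell viability assay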
# Description: SANGER: Inhibition of human QIMR-WIL cell growth in a cell viability assay.
# RH-1 = type: functional, cell-based, Homo sapiens; conditions: Homo sapiens, RH-1;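 also: growth inhibition of human RH-1 cells, read out with a cell viability assay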
# Description: SANGER: Inhibition of human RH-1 cell growth in a cell viability assay.
# RPMI-8226 = type: functional, cell-based, Homo sapiens; conditions: Homo sapiens, RPMI-8226
# Description: SANGER: Inhibition of human RPMI-8226 cell growth in a cell viability assay.
# SCH = type: functional, cell-based, Homo sapiens; conditions: Homo sapiens, SCH;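 also: growth inhibition of human SCH cells, read out in a cell viability assay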
# Description: SANGER: Inhibition of human SCH cell growth in a cell viability assay.
# SF-268 = type: functional, cell-based, Homo sapiens; conditions: Homo sapiens, SF-268;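 also: growth inhibition of SF-268 cells determined with a cell viability assay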
# Description: SANGER: Inhibition of human SF268 cell growth in a cell viability assay.
# SK-N-DZ = type: functional, cell-based, Homo sapiens; conditions: Homo sapiens, SK-N-DZ; read-out: IC50;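 also: growth inhibition of the cancer cell line, read out through a viability assay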
# Description: SANGER: Inhibition of human SK-N-DZ cell growth in a cell viability assay.
# SK-NEP-1 = type: functional, cell-based, Homo sapiens; conditions: Homo sapiens, SK-NEP-1;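 also: growth inhibition of human SK-NEP-1 cells, read out by a cell viability assay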
# Description: SANGER: Inhibition of human SK-NEP-1 cell growth in a cell viability assay.
# SW872 = type: functional, cell-based, Homo sapiens; conditions: Homo sapiens, SW872;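 also: growth inhibition of SW872 cells, read out by a viability assay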
# Description: SANGER: Inhibition of human SW872 cell growth in a cell viability assay.
# A101D = type: functional, cell-based, Homo sapiens; conditions: Homo sapiens, A101D;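 also: growth inhibition of the cell line, measured with a viability assay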
# Description: SANGER: Inhibition of human A101D cell growth in a cell viability assay.
# A4-Fuk = type: functional, cell-based, Homo sapiens; conditions: Homo sapiens, A4-Fuk;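 also: growth inhibition of A4-Fuk cells, read out by a cell viability assay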
# Description: SANGER: Inhibition of human A4-Fuk cell growth in a cell viability assay.
# ATN-1 = type: functional, cell-based, Homo sapiens; conditions: Homo sapiens, ATN-1;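 also: growth inhibition of human ATN-1 cells, read out with a cell viability assay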
# Description: SANGER: Inhibition of human ATN-1 cell growth in a cell viability assay.
# BV-173 = type: functional, cell-based, Homo sapiens; conditions: Homo sapiens, BV-173
# Description: SANGER: Inhibition of human BV-173 cell growth in a cell viability assay.
# TE-12 = type: functional, cell-based, Homo sapiens; conditions: Homo sapiens, TE-12;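 also: growth inhibition of TE-12 cells, read out by a cell viability assay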
# Description: SANGER: Inhibition of human TE-12 cell growth in a cell viability assay.
# TE-8 = type: functional, cell-based, Homo sapiens; conditions: Homo sapiens, TE-8;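 also: growth inhibition of TE-8 cells, measured with a cell viability readout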
# Description: SANGER: Inhibition of human TE-8 cell growth in a cell viability assay.
# U-87 MG = type: functional, cell-based, Homo sapiens, U-87MG ATCC; conditions: Homo sapiens, U-87 MG;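 also: growth inhibition of the cells measured with a viability assay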
# Description: SANGER: Inhibition of human U-87-MG cell growth in a cell viability assay.
# CAS-1 = type: functional, cell-based, Homo sapiens; conditions: Homo sapiens, CAS-1;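 also: growth inhibition of CAS-1 cells, measured with a cell viability assay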
# Description: SANGER: Inhibition of human CAS-1 cell growth in a cell viability assay.
# COLO-320-HSR = type: functional, cell-based, Homo sapiens; conditions: Homo sapiens, COLO-320-HSR;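 also: growth inhibition of COLO-320-HSR cells, determined with a cell viability assay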
# Description: SANGER: Inhibition of human COLO-320-HSR cell growth in a cell viability assay.
# COLO-668 = type: functional, cell-based, Homo sapiens; conditions: Homo sapiens, COLO-668
# Description: SANGER: Inhibition of human COLO-668 cell growth in a cell viability assay.
# COLO-829 = type: functional, cell-based, Homo sapiens; conditions: Homo sapiens, COLO-829
# Description: SANGER: Inhibition of human COLO-829 cell growth in a cell viability assay.
# NCI-H1838 = type: functional, cell-based, Homo sapiens; conditions: Homo sapiens, NCI-H1838;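 also: growth inhibition of NCI-H1838 cells, determined with a cell viability readout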
# Description: SANGER: Inhibition of human NCI-H1838 cell growth in a cell viability assay.
structure (smiles),measurement,setting,value
NC1(c2ccc(-c3nc4ccn5c(=O)[nH]nc5c4cc3-c3ccccc3)cc2)CCC1 [MK-2206],IC50,COLO-800,> 4 µM
same,IC50,CTV-1,> 4 µM
same,IC50,CW-2,> 4 µM
same,IC50,D283 Med,> 4 µM
same,IC50,EKVX,> 4 µM
same,IC50,ES7,> 4 µM
same,IC50,ETK-1,> 4 µM
same,IC50,EW-18,2.42 µM
same,IC50,EOL1,3.07 µM
same,IC50,GCIY,> 4 µM
same,IC50,HAL-01,0.621 µM
same,IC50,HCC1187,> 4 µM
same,IC50,HCC2218,1.68 µM
same,IC50,HEL,> 4 µM
same,IC50,K562,> 4 µM
same,IC50,KINGS-1,> 4 µM
same,IC50,KNS-42,> 4 µM
same,IC50,LB1047-RCC,2.24 µM
same,IC50,LNCaP-Clone-FGC,0.61 µM
same,IC50,LU-139,> 4 µM
same,IC50,MFM-223,1.34 µM
same,IC50,MSTO-211H,> 4 µM
same,IC50,NB10,> 4 µM
same,IC50,NCI-H1355,> 4 µM
same,IC50,NCI-H69,> 4 µM
same,IC50,NEC8,0.0965 µM
same,IC50,NOMO-1,> 4 µM
same,IC50,P30-OHK,3.81 µM
same,IC50,QIMR-WIL,1.49 µM
same,IC50,RH-1,> 4 µM
same,IC50,RPMI-8226,2.63 µM
same,IC50,SCH,> 4 µM
same,IC50,SF-268,> 4 µM
same,IC50,SK-N-DZ,> 4 µM
same,IC50,SK-NEP-1,1.14 µM
same,IC50,SW872,> 4 µM
same,IC50,A101D,> 4 µM
same,IC50,A4-Fuk,0.469 µM
same,IC50,ATN-1,> 4 µM
same,IC50,BV-173,1.81 µM
same,IC50,TE-12,> 4 µM
same,IC50,TE-8,> 4 µM
same,IC50,U-87 MG,> 4 µM
same,IC50,CAS-1,> 4 µM
same,IC50,COLO-320-HSR,> 4 µM
same,IC50,COLO-668,> 4 µM
COc1ccc(N(C(=O)Oc2c(C)cccc2C)c2ccnc(Nc3ccc(N4CCN(C)CC4)cc3)n2)c(OC)c1,IC50,COLO-800,> 5.12 µM
same,IC50,COLO-829,0.312 µM
same,IC50,CTV-1,< 0.02 µM
same,IC50,CW-2,> 5.12 µM
same,IC50,D283 Med,> 5.12 µM
same,IC50,EKVX,> 5.12 µM
same,IC50,ES7,> 5.12 µM
same,IC50,ETK-1,> 5.12 µM
same,IC50,EW-18,> 5.12 µM
same,IC50,EOL1,< 0.02 µM
same,IC50,GCIY,1.23 µM
same,IC50,HAL-01,> 5.12 µM
same,IC50,HCC1187,> 5.12 µM
same,IC50,HCC2218,> 5.12 µM
same,IC50,HEL,> 5.12 µM
same,IC50,K562,< 0.02 µM
same,IC50,KINGS-1,1.97 µM
same,IC50,KNS-42,> 5.12 µM
same,IC50,LB1047-RCC,0.0759 µM
same,IC50,LNCaP-Clone-FGC,> 5.12 µM
same,IC50,LU-139,> 5.12 µM
same,IC50,MFM-223,> 5.12 µM
same,IC50,MSTO-211H,> 5.12 µM
same,IC50,NB10,> 5.12 µM
same,IC50,NCI-H1355,4.88 µM
same,IC50,NCI-H1838,> 5.12 µM
same,IC50,NCI-H69,> 5.12 µM
same,IC50,NEC8,> 5.12 µM
same,IC50,NOMO-1,> 5.12 µM
same,IC50,P30-OHK,> 5.12 µM
same,IC50,QIMR-WIL,> 5.12 µM
same,IC50,RH-1,> 5.12 µM
same,IC50,RPMI-8226,> 5.12 µM
same,IC50,SCH,> 5.12 µM
same,IC50,SF-268,2.49 µM
same,IC50,SK-N-DZ,> 5.12 µM
same,IC50,SK-NEP-1,> 5.12 µM
same,IC50,SW872,0.865 µM
same,IC50,A101D,> 5.12 µM
same,IC50,A4-Fuk,> 5.12 µM
same,IC50,ATN-1,> 5.12 µM
same,IC50,BV-173,< 0.02 µM
same,IC50,TE-12,0.888 µM
same,IC50,TE-8,0.239 µM
same,IC50,U-87 MG,> 5.12 µM
same,IC50,CAS-1,4.4 µM
same,IC50,COLO-320-HSR,> 5.12 µM
same,IC50,COLO-668,> 5.12 µM
NC(=O)Nc1cc(-c2cccc(F)c2)sc1C(=O)N[C@H]1CCCNC1 [AZD-7762],IC50,COLO-800,0.603 µM
same,IC50,COLO-829,0.298 µM
same,IC50,CTV-1,0.039 µM
same,IC50,CW-2,> 2 µM
same,IC50,D283 Med,0.137 µM
same,IC50,EKVX,> 2 µM
same,IC50,ES7,0.16 µM
same,IC50,ETK-1,0.637 µM
same,IC50,EW-18,1.6 µM
same,IC50,EOL1,< 0.00781 µM
same,IC50,GCIY,1.39 µM
same,IC50,HAL-01,0.21 µM
same,IC50,HCC1187,0.967 µM
same,IC50,HCC2218,> 2 µM
same,IC50,HEL,0.225 µM
same,IC50,K562,> 2 µM
same,IC50,KINGS-1,1.42 µM
same,IC50,KNS-42,> 2 µM
same,IC50,LB1047-RCC,0.0602 µM
same,IC50,LNCaP-Clone-FGC,1.44 µM
same,IC50,LU-139,> 2 µM
same,IC50,MFM-223,1.24 µM
same,IC50,MSTO-211H,0.299 µM
same,IC50,NB10,0.591 µM
same,IC50,NCI-H1355,0.679 µM
same,IC50,NCI-H1838,> 2 µM
same,IC50,NCI-H69,> 2 µM
same,IC50,NEC8,0.042 µM
same,IC50,NOMO-1,0.0612 µM
same,IC50,P30-OHK,0.132 µM
same,IC50,QIMR-WIL,0.163 µM
same,IC50,RH-1,0.227 µM
same,IC50,RPMI-8226,0.175 µM
same,IC50,SCH,1.33 µM
same,IC50,SF-268,0.881 µM
same,IC50,SK-N-DZ,0.531 µM
same,IC50,SK-NEP-1,0.464 µM
same,IC50,SW872,> 2 µM
same,IC50,A101D,1.7 µM
same,IC50,A4-Fuk,0.0749 µM
same,IC50,ATN-1,0.0342 µM
same,IC50,BV-173,0.346 µM
same,IC50,TE-12,> 2 µM
same,IC50,TE-8,1.12 µM
same,IC50,U-87 MG,1.21 µM
same,IC50,CAS-1,1.21 µM
same,IC50,COLO-320-HSR,1 µM
same,IC50,COLO-668,> 2 µM
